# Measured values as given in patent US20260137701A1, “CHOLESTENOIC ACID (CA) AND A SULFATED DERIVATIVE THEREOF, 3[BETA]-SULFATE-5-CHOLESTENOIC ACID (CA3S), AS ENDOGENOUS EPIGENETIC REGULATORS” (priority 2022, published 2026).
# Test system: HepG-2 cells
# Test: Whole genome bisulfite sequencing (WGBS), differentially methylated regions
# Assay type: cell-based, human
# Conditions: for DMR (Methylation %) UQCRC1 promoter region / DMR (Methylation %) VDAC2 promoter region / number of DMRs in promoter region, hyper-methylated / number of DMRs in promoter region, hypo-methylated / number of DMRs in promoter region, total / DMR (Methylation %) ADRA1A promoter region / DMR (Methylation %) ADRA1B promoter region / DMR (Methylation %) ADRA1 promoter region / DMR (Methylation %) BCL6 promoter region / DMR (Methylation %) CACNA1D promoter region / DMR (Methylation %) CALML3 promoter region / DMR (Methylation %) CALML4 promoter region / DMR (Methylation %) CAMKK2 promoter region / DMR (Methylation %) COX7B promoter region / DMR (Methylation %) COX8A promoter region / DMR (Methylation %) CPT1A promoter region / DMR (Methylation %) CPT1C promoter region / DMR (Methylation %) CREB3L4 promoter region / DMR (Methylation %) CYP1A1 promoter region / DMR (Methylation %) ESR2 promoter region / DMR (Methylation %) FBP1 promoter region / DMR (Methylation %) FGF1 promoter region / DMR (Methylation %) FGF8 promoter region / DMR (Methylation %) FGFR2 promoter region / DMR (Methylation %) LDHA promoter region / DMR (Methylation %) LDHAL6A promoter region / DMR (Methylation %) LDHC promoter region / DMR (Methylation %) LEP promoter region / DMR (Methylation %) MIR29A promoter region / DMR (Methylation %) MIRLET7B promoter region / DMR (Methylation %) MTOR promoter region / DMR (Methylation %) NTRK3 promoter region / DMR (Methylation %) PDHA2 promoter region / DMR (Methylation %) PDHB promoter region / DMR (Methylation %) PHKG1 promoter region / DMR (Methylation %) PPARG promoter region / DMR (Methylation %) SDHA promoter region / DMR (Methylation %) SDHB promoter region / DMR (Methylation %) SPHK2 promoter region: 20 μM CA
# Procedure: After culturing HepG-2 cells in DMEM medium with HG for 72 hours followed by treating with 20 μM CA for 0, 3, 6, 12, and 24 hours, genomic DNA from 5×10^7 cells were extracted using QIAamp® DNA Mini Kit (QIAGEN, Hilden, Germany). Each sample, 6 μg, was sent to CD Genomics Co., Ltd (New York, USA) for analysis of WGBS. Total RNA was isolated using the Promega SV total RNA isolation system (Madison, WI, USA) with DNase treatment. Each sample, 2 μg, were sent to CD Genomics Co., Ltd (New York, USA) for analysis of RNA sequencing. The same samples, 2 μg, was used for the first-strand cDNA synthesis as recommended by the manufacturer (Invitrogen, Carlsbad, CA). RT-qPCR was performed using SYBR Green as the indicator on ABI 7500 Fast Real-Time PCR System (Applied Biosystems, Foster City, CA). Amplifications of j-actin or GAPDH were used as internal controls. Relative messenger RNA (mRNA) expression was quantified with the comparative cycle threshold (Ct) method using a sutiable primer set and was expressed as 2-ΔΔCt as described previously.
# Each sample, 1 μg of genomic DNA was fragmented by sonication to a mean size of approximately 200-400 bp, and subsequently used for WGBS library construction using Acegen Bisulfite-Seq Library Prep Kit (Acegen) following the manufacturer's instructions. The methylated adapter-ligated DNAs were purified using 0.8×Agencourt AMPure™ XP magnetic beads and subjected to bisulfite conversion by ZYMO EZ DNA Methylation-Gold™ Kit (Zymo Research Corporation, CA, USA). The converted DNAs were then amplified using 25 μl KAPA HiFi™ HotStart Uracil+ ReadyMix (2×) and 8-bp index primers with a final concentration of 1 μM each. The constructed WGBS libraries were then analyzed by Agilent 2100 Bioanalyzer and quantified by a Qubit fluorometer with Quant-iT™ dsDNA HS Assay Kit (Invitrogen), and finally sequenced on Illumina® Hiseq X™ Ten sequencer. After the preparation of the library, Qubit 2.0 and Agilent 2100 were used respectively to detect the concentration of the library and the Insert Size, and the effective concentration (>2 nM) of the library was quantitatively determined by Q-PCR to ensure the library quality.
# Samples were sequenced using the Illumina® HiSeq sequencing platform. Raw data generated on the sequencing platform contained a small percentage of low-quality data, which was then filtered to get high-quality data. Bsmap software was used to perform alignments of bisulfite-treated reads to a reference genome (GRCh37). Metilene software was used to identify differentially methylated regions (DMRs). DAVID software (website located at david.ncifcrf.gov/) was used to test the statistical enrichment of DMR related genes in the Gene Ontology (GO) and Kyoto Encyclopedia of Genes and Genomes (KEGG) pathways.
smiles,measurement,setting,value
"CC(CCC[C@@H](C)[C@H]1CC[C@H]2[C@@H]3CC=C4C[C@@H](O)CC[C@]4(C)[C@H]3CC[C@]12C)C(=O)O (stereo partly drawn) [CA, 3β-hydroxy-5-cholestenoic acid]",DMR (Methylation %) UQCRC1 promoter region,6 h,−56.12%
same,DMR (Methylation %) VDAC2 promoter region,6 h,−40.06%
same,"number of DMRs in promoter region, hyper-methylated",6 hours,"1,749"
same,"number of DMRs in promoter region, hypo-methylated",6 hours,"22,621"
same,"number of DMRs in promoter region, total",6 hours,"24,370"
same,DMR (Methylation %) ADRA1A promoter region,12 h,−30.57%
same,DMR (Methylation %) ADRA1B promoter region,12 h,0%
same,DMR (Methylation %) ADRA1 promoter region,12 h,−30.57%
same,DMR (Methylation %) BCL6 promoter region,12 h,−33.25%
same,DMR (Methylation %) CACNA1D promoter region,12 h,0%
same,DMR (Methylation %) CALML3 promoter region,12 h,−30.32%
same,DMR (Methylation %) CALML4 promoter region,12 h,−21.6%
same,DMR (Methylation %) CAMKK2 promoter region,12 h,−23.88%
same,DMR (Methylation %) COX7B promoter region,12 h,0%
same,DMR (Methylation %) COX8A promoter region,12 h,0%
same,DMR (Methylation %) CPT1A promoter region,12 h,−16.93%
same,DMR (Methylation %) CPT1C promoter region,12 h,−24.72%
same,DMR (Methylation %) CREB3L4 promoter region,12 h,0%
same,DMR (Methylation %) CYP1A1 promoter region,12 h,0%
same,DMR (Methylation %) ESR2 promoter region,12 h,−28.97%
same,DMR (Methylation %) FBP1 promoter region,12 h,0%
same,DMR (Methylation %) FGF1 promoter region,12 h,−48.58%
same,DMR (Methylation %) FGF8 promoter region,12 h,−37.87%
same,DMR (Methylation %) FGFR2 promoter region,12 h,0%
same,DMR (Methylation %) LDHA promoter region,12 h,−36.43%
same,DMR (Methylation %) LDHAL6A promoter region,12 h,0%
same,DMR (Methylation %) LDHC promoter region,12 h,0%
same,DMR (Methylation %) LEP promoter region,12 h,−62.7%
same,DMR (Methylation %) MIR29A promoter region,12 h,−22.09%
same,DMR (Methylation %) MIRLET7B promoter region,12 h,0%
same,DMR (Methylation %) MTOR promoter region,12 h,−27.13%
same,DMR (Methylation %) NTRK3 promoter region,12 h,−53.95%
same,DMR (Methylation %) PDHA2 promoter region,12 h,−28.93%
same,DMR (Methylation %) PDHB promoter region,12 h,0%
same,DMR (Methylation %) PHKG1 promoter region,12 h,−24.54%
same,DMR (Methylation %) PPARG promoter region,12 h,−27.41%
same,DMR (Methylation %) SDHA promoter region,12 h,0%
same,DMR (Methylation %) SDHB promoter region,12 h,−38.35%
same,DMR (Methylation %) SPHK2 promoter region,12 h,−18.02%
same,DMR (Methylation %) UQCRC1 promoter region,12 h,−23.36%
same,DMR (Methylation %) VDAC2 promoter region,12 h,−19.71%
same,"number of DMRs in promoter region, hyper-methylated",12 hours,"1,891"
same,"number of DMRs in promoter region, hypo-methylated",12 hours,"23,813"
same,"number of DMRs in promoter region, total",12 hours,"25,704"
same,DMR (Methylation %) ADRA1A promoter region,24 h,−30.81%
same,DMR (Methylation %) ADRA1B promoter region,24 h,0%
same,DMR (Methylation %) ADRA1 promoter region,24 h,−30.81%
same,DMR (Methylation %) BCL6 promoter region,24 h,−31.52%
same,DMR (Methylation %) CACNA1D promoter region,24 h,0%
same,DMR (Methylation %) CALML3 promoter region,24 h,−26.91%
same,DMR (Methylation %) CALML4 promoter region,24 h,−21%
same,DMR (Methylation %) CAMKK2 promoter region,24 h,0%
same,DMR (Methylation %) COX7B promoter region,24 h,0%
same,DMR (Methylation %) COX8A promoter region,24 h,−34.15%
same,DMR (Methylation %) CPT1A promoter region,24 h,−29.33%
same,DMR (Methylation %) CPT1C promoter region,24 h,−24.09%
same,DMR (Methylation %) CREB3L4 promoter region,24 h,−35.93%
same,DMR (Methylation %) CYP1A1 promoter region,24 h,−27.04%
same,DMR (Methylation %) ESR2 promoter region,24 h,−24.69%
same,DMR (Methylation %) FBP1 promoter region,24 h,−28.62%
same,DMR (Methylation %) FGF1 promoter region,24 h,0%
same,DMR (Methylation %) FGF8 promoter region,24 h,0%
same,DMR (Methylation %) FGFR2 promoter region,24 h,−24.29%
same,DMR (Methylation %) LDHA promoter region,24 h,−32.94%
same,DMR (Methylation %) LDHAL6A promoter region,24 h,−22.36%
same,DMR (Methylation %) LDHC promoter region,24 h,−31.77%
same,DMR (Methylation %) LEP promoter region,24 h,0%
same,DMR (Methylation %) MIR29A promoter region,24 h,−26.93%
same,DMR (Methylation %) MIRLET7B promoter region,24 h,−24.75%
same,DMR (Methylation %) MTOR promoter region,24 h,0%
same,DMR (Methylation %) NTRK3 promoter region,24 h,−53.82%
same,DMR (Methylation %) PDHA2 promoter region,24 h,−38.56%
same,DMR (Methylation %) PDHB promoter region,24 h,−26.74%
same,DMR (Methylation %) PHKG1 promoter region,24 h,−33.52%
same,DMR (Methylation %) PPARG promoter region,24 h,−27.57%
same,DMR (Methylation %) SDHA promoter region,24 h,−23.5%
same,DMR (Methylation %) SDHB promoter region,24 h,0%
same,DMR (Methylation %) SPHK2 promoter region,24 h,−45.29%
same,DMR (Methylation %) UQCRC1 promoter region,24 h,−26.32%
same,DMR (Methylation %) VDAC2 promoter region,24 h,−26.13%
same,"number of DMRs in promoter region, hyper-methylated",24 hours,"1,594"
same,"number of DMRs in promoter region, hypo-methylated",24 hours,"26,762"
same,"number of DMRs in promoter region, total",24 hours,"28,356"
same,number of genes with demethylation of 5 mCpG to CpG in promoter regions,HepG-2 cells,"over 7,000"
